{"source": "patent US20010012631A1", "about": "“Plant clonal lines and plants having elevated secondary metabolite levels” (University of Massachusetts Medical Center, a Massachusetts …, priority 1997, published 2001)", "key": {"rosemary clonal line R-1": {"system": "rosemary clonal line R-1", "assay": "Morphological abnormalities / tolerance of cultured shoots, rosemary line R-1", "assay_type": "cell-based", "conditions": "rosemary line R-1, 200 μM A2C", "protocol": "Pseudomonas tolerance of Pseudomonas-treated shoots was determined by visual observation with a stereomicroscope (Olympus-SZ40, Tokyo, Japan) at a magnification of 34X. Cultured shoots were evaluated for morphological abnormalities, including malformation, necrosis, and chlorophyll deficiency. The response of individual tissue propagules to Pseudomonas contact was similar within each line, i.e., there was little or no variation among tissue propagules within each line.\n(§1) Individual shoot propagules of each clonal line were transferred to half-strength hormone-free MS media supplemented with A2C and cultured for 30 to 45 days. RA content and morphological abnormalities were determined at the end of the culture period as described in Example 1."}, "[1]": {"system": "rosemary clonal line R-35", "assay": "RA content of shoot propagules, rosemary clonal line R-35", "assay_type": "cell-based", "conditions": "30 to 45 days, ± SD", "protocol": "Samples of Pseudomonas-treated and untreated control shoots from each line were assayed for rosmarinic acid content and proline content. Rosmarinic acid was extracted from 50 mg of fresh shoot tissue using 2 ml of 50% (v/v) methanol and incubating for 1 hour at 55° C. One ml of the methanol extract was diluted 1:18 and the absorbance of the diluted extract was measured at 333 nm in a Genesys spectrophotometer (Spectronic Instruments, Rochester, N.Y.). The concentration of RA in the extract was calculated using an extinction coefficient of ε333=19,000 τmol^−1cm^−1. Values for the concentration of RA for each treatment/clonal line shown in the Tables and Figures of this application are the average of at least 5 separate extracts. Total rosmarinic acid content was expressed as % g/g fresh weight (FW) of tissue.\nThree clonal thyme lines and five rosemary clonal lines were isolated and maintained in culture as described in U.S. application Ser. No. 08/771,241, filed Dec. 20, 1996 and incorporated herein by reference.\nas §1"}, "[2]": {"system": "regenerated plants of oregano clone 0-1 and five tolerant clones", "assay": "Field treatment: total phenolic content of leaf tissue of regenerated oregano plants", "assay_type": "in vivo", "conditions": "field plants sprayed with solution of A2C about 50 μm, Nonidet P40, EMC about 0.5% w/v; leaf tissue after 7 days; fresh weight and dry weight basis", "protocol": "About 100 regenerated plants of oregano clone 0-1, and the five tolerant clones of Example 7 are removed from a greenhouse, and planted outdoors in a field during the spring, and summer growing season. Plantings are carried out using a randomized block design. Plants are fertilized weekly, but are not irrigated. About 7 days before flower emergence, half of the plants of each line are sprayed with an aqueous solution comprising A2C, Nonidet P40™, and EMC prepared from strain F. A2C is present at about 50 μm, and EMC is present at about 0.5% w/v. Each plant receives about 1 to 2 ml on the upper surface of the leaves. The remaining control plants are treated by spraying an aqueous solution that contains no A2C and no EMC. Spraying is carried out such that there is little or no carryover to adjacent plants.\nAfter 7 days, leaf tissue from A2C-treated and control plants is harvested, and analyzed for total phenolic content, and RA content as described in Example 7. […] The plant-to-plant variation among A2C-treated plants of each line is about 5% to about 15%."}}, "data": [{"compound": "O=C(O)C1CCN1", "note": "(stereo not shown) [A2C, azetidine-2-carboxylic acid]", "values": [{"measurement": "survival of line in culture", "setting": "rosemary clonal line R-1", "value": "killed"}, {"measurement": "RA Levels", "setting": "[1]; rosemary R-35, A2C 100 μM", "value": "12.1 ± 1.4", "unit": "mg/g FW"}, {"measurement": "RA Levels", "setting": "[1]; rosemary R-35, A2C 200 μM", "value": "10.9 ± 0.9", "unit": "mg/g FW"}, {"measurement": "total phenolics vs control tissue", "setting": "[2]", "value": "at least 2 fold"}]}]}
